{"source": "ChEMBL document CHEMBL3885861", "about": "“Open TG-GATES”", "species": "Rattus norvegicus", "test": "Open TG-GATES - Regimen: Daily Repeat", "assay_type": "toxicity, organism-based, Sprague-Dawley", "set-up": "regimen Daily Repeat, gender Male, age 6 weeks", "conditions": "in vivo, po, 1000 mg/kg, route gavage, dose level High; for APTT / Bas / Eos / Fbg / Hb / Ht / Lym / MCH / MCHC / MCV / Mono / Neu / PT / Plat / RBC / Ret / WBC: tissue Blood", "key": {"[1]": {"conditions": "72 h, tissue Kidney, time 3 day"}, "[2]": {"conditions": "72 h, tissue Plasma, time 3 day"}}, "data": [{"smiles": "COc1ccc2[nH]c([S+]([O-])Cc3ncc(C)c(OC)c3C)nc2c1", "note": "(configuration not stated) [OMEPRAZOLE]", "values": [{"measurement": "TERMINAL_BW", "setting": "72 h, time 3 day", "result": 219.1, "unit": "g"}, {"measurement": "APTT", "setting": "72 h, time 3 day", "result": 19.8, "unit": "s"}, {"measurement": "Bas", "setting": "72 h, time 3 day", "result": 0, "unit": "%"}, {"measurement": "Eos", "setting": "72 h, time 3 day", "result": 0.6, "unit": "%"}, {"measurement": "Fbg", "setting": "72 h, time 3 day", "result": 196, "unit": "mg/dL"}, {"measurement": "Hb", "setting": "72 h, time 3 day", "result": 13.8, "unit": "g/dL"}, {"measurement": "Ht", "setting": "72 h, time 3 day", "result": 39.6, "unit": "%"}, {"measurement": "Lym", "setting": "72 h, time 3 day", "result": 83.2, "unit": "%"}, {"measurement": "MCH", "setting": "72 h, time 3 day", "result": 20.8, "unit": "pg"}, {"measurement": "MCHC", "setting": "72 h, time 3 day", "result": 34.8, "unit": "%"}, {"measurement": "MCV", "setting": "72 h, time 3 day", "result": 59.9, "unit": "fL"}, {"measurement": "Mono", "setting": "72 h, time 3 day", "result": 3.8, "unit": "%"}, {"measurement": "Neu", "setting": "72 h, time 3 day", "result": 11.8, "unit": "%"}, {"measurement": "PT", "setting": "72 h, time 3 day", "result": 12.1, "unit": "s"}, {"measurement": "Plat", "setting": "72 h, time 3 day", "result": 132.7, "unit": "x10_4/uL"}, {"measurement": "RBC", "setting": "72 h, time 3 day", "result": 662.2, "unit": "x10_4/ul"}, {"measurement": "Ret", "setting": "72 h, time 3 day", "result": 1.7, "unit": "%"}, {"measurement": "WBC", "setting": "72 h, time 3 day", "result": 99.5, "unit": "x10_2/uL"}, {"measurement": "KIDNEY_L", "setting": "[1]", "result": 1, "unit": "g"}, {"measurement": "KIDNEY_R", "setting": "[1]", "result": 1, "unit": "g"}, {"measurement": "KIDNEY_TOTAL", "setting": "[1]", "result": 1.9, "unit": "g"}, {"measurement": "LIVER", "setting": "72 h, tissue Liver, time 3 day", "result": 15.4, "unit": "g"}, {"measurement": "ALP", "setting": "[2]", "result": 629, "unit": "IU/L"}, {"measurement": "AST", "setting": "[2]", "result": 46, "unit": "IU/L"}, {"measurement": "BUN", "setting": "[2]", "result": 17.6, "unit": "mg/dL"}, {"measurement": "CRE", "setting": "[2]", "result": 0.4, "unit": "mg/dL"}, {"measurement": "Ca", "setting": "[2]", "result": 10, "unit": "mg/dL"}, {"measurement": "Cl", "setting": "[2]", "result": 101.8, "unit": "meq/L"}, {"measurement": "DBIL", "setting": "[2]", "result": 0.094, "unit": "mg/dL"}, {"measurement": "GLC", "setting": "[2]", "result": 195, "unit": "mg/dL"}, {"measurement": "IP", "setting": "[2]", "result": 7.5, "unit": "mg/dL"}, {"measurement": "K", "setting": "[2]", "result": 3.8, "unit": "meq/L"}, {"measurement": "LDH", "setting": "[2]", "result": 200, "unit": "IU/L"}, {"measurement": "Na", "setting": "[2]", "result": 140.2, "unit": "meq/L"}, {"measurement": "PL", "setting": "[2]", "result": 207.4, "unit": "mg/dL"}, {"measurement": "RALB", "setting": "[2]", "result": 3.3, "unit": "g/dL"}, {"measurement": "TBIL", "setting": "[2]", "result": 0.2, "unit": "mg/dL"}, {"measurement": "TC", "setting": "[2]", "result": 120.8, "unit": "mg/dL"}, {"measurement": "TG", "setting": "[2]", "result": 157.2, "unit": "mg/dL"}, {"measurement": "TP", "setting": "[2]", "result": 5.6, "unit": "g/dL"}, {"measurement": "gamma-GTP", "setting": "[2]", "result": 2, "unit": "IU/L"}, {"measurement": "TERMINAL_BW", "setting": "[…], time 7 day", "result": 262, "unit": "g"}, {"measurement": "TERMINAL_BW", "setting": "[…], time 14 day", "result": 300.1, "unit": "g"}, {"measurement": "TERMINAL_BW", "setting": "[…], time 28 day", "result": 351.8, "unit": "g"}, {"measurement": "APTT", "setting": "[…], time 7 day", "result": 21.9, "unit": "s"}, {"measurement": "Bas", "setting": "[…], time 7 day", "result": 0, "unit": "%"}, {"measurement": "Eos", "setting": "[…], time 7 day", "result": 0.6, "unit": "%"}, {"measurement": "Fbg", "setting": "[…], time 7 day", "result": 215.2, "unit": "mg/dL"}, {"measurement": "Hb", "setting": "[…], time 7 day", "result": 12, "unit": "g/dL"}, {"measurement": "Ht", "setting": "[…], time 7 day", "result": 34.9, "unit": "%"}, {"measurement": "Lym", "setting": "[…], time 7 day", "result": 80.4, "unit": "%"}, {"measurement": "MCH", "setting": "[…], time 7 day", "result": 20.3, "unit": "pg"}, {"measurement": "MCHC", "setting": "[…], time 7 day", "result": 34.4, "unit": "%"}, {"measurement": "MCV", "setting": "[…], time 7 day", "result": 59, "unit": "fL"}, {"measurement": "Mono", "setting": "[…], time 7 day", "result": 3.8, "unit": "%"}, {"measurement": "Neu", "setting": "[…], time 7 day", "result": 14.6, "unit": "%"}, {"measurement": "PT", "setting": "[…], time 7 day", "result": 11.9, "unit": "s"}, {"measurement": "Plat", "setting": "[…], time 7 day", "result": 171.4, "unit": "x10_4/uL"}, {"measurement": "RBC", "setting": "[…], time 7 day", "result": 591.8, "unit": "x10_4/ul"}, {"measurement": "Ret", "setting": "[…], time 7 day", "result": 4.3, "unit": "%"}, {"measurement": "WBC", "setting": "[…], time 7 day", "result": 118.3, "unit": "x10_2/uL"}, {"measurement": "APTT", "setting": "[…], time 14 day", "result": 24.5, "unit": "s"}, {"measurement": "Bas", "setting": "[…], time 14 day", "result": 0, "unit": "%"}, {"measurement": "Eos", "setting": "[…], time 14 day", "result": 0.6, "unit": "%"}, {"measurement": "Fbg", "setting": "[…], time 14 day", "result": 203.8, "unit": "mg/dL"}, {"measurement": "Hb", "setting": "[…], time 14 day", "result": 11.7, "unit": "g/dL"}, {"measurement": "Ht", "setting": "[…], time 14 day", "result": 34.1, "unit": "%"}, {"measurement": "Lym", "setting": "[…], time 14 day", "result": 82.2, "unit": "%"}, {"measurement": "MCH", "setting": "[…], time 14 day", "result": 18.6, "unit": "pg"}, {"measurement": "MCHC", "setting": "[…], time 14 day", "result": 34.2, "unit": "%"}, {"measurement": "MCV", "setting": "[…], time 14 day", "result": 54.3, "unit": "fL"}, {"measurement": "Mono", "setting": "[…], time 14 day", "result": 2.6, "unit": "%"}, {"measurement": "Neu", "setting": "[…], time 14 day", "result": 13, "unit": "%"}, {"measurement": "PT", "setting": "[…], time 14 day", "result": 12.7, "unit": "s"}, {"measurement": "Plat", "setting": "[…], time 14 day", "result": 139.7, "unit": "x10_4/uL"}, {"measurement": "RBC", "setting": "[…], time 14 day", "result": 628.4, "unit": "x10_4/ul"}, {"measurement": "Ret", "setting": "[…], time 14 day", "result": 5, "unit": "%"}, {"measurement": "WBC", "setting": "[…], time 14 day", "result": 131, "unit": "x10_2/uL"}, {"measurement": "APTT", "setting": "[…], time 28 day", "result": 23.8, "unit": "s"}, {"measurement": "Bas", "setting": "[…], time 28 day", "result": 0, "unit": "%"}, {"measurement": "Eos", "setting": "[…], time 28 day", "result": 0.6, "unit": "%"}, {"measurement": "Fbg", "setting": "[…], time 28 day", "result": 196.8, "unit": "mg/dL"}]}]}
